What all share (test): growth of human tumour cells (NCI), 48 h
The subject of test [1] is COLO 205 colon.
Test [2] concerns HOP-18 NSCLC.
Test [3] relates to DLD-1 colon.
In test [4] the test system is KM20L2 colon.
Test [5] has as its system LXFL 529 NSCLC.
Test [6] concerns M19-MEL melanoma.
In test [7] the test system is SNB-78 CNS.
Test [8] concerns DMS 114 small cell lung.
Test [9] relates to DMS 273 small cell lung.
The subject of test [10] is XF 498 CNS.

Experimental findings from PubChem BioAssay (NCI) are described below.

SMILES strings stand for the structures.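 Dose response: 5 concentrations. Exposure: 48 h. Format: 96-well plates. Endpoint: linear interpolation; highest concentration if not reached. GI50 = concentration required for 50% inhibition of growth. TGI denotes the concentration required for complete inhibition of growth.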 Where a SMILES comes first, the peptide text is derived from it. Bridges are numbered along the chain shown (N, C = ends). [ ]: non-standard residue; d: D form. The star is where a group is joined. Cbz = O=C(OCc1ccccc1)*; Aib = CC(C)(N)C(=O)O; OBn = c1ccc(CO*)cc1; βAla = NCCC(=O)O

Regarding `CC(=O)NCc1nc(C#N)c(N)o1`, the TGI in test [1] was over 100 µM. Still for that read-out and setting: the value for `S=C1Cc2c([nH]c3ccccc23)-c2ccccc2N1` was over 100 µM; that for `N#Cc1nc(COCCOCc2ccccc2)oc1N` was over 100 µM. In turn, `COc1ccc(-c2c(C(C)=O)c(-c3ccccc3)n(C3OC(COC(C)=O)C(OC(C)=O)C(OC(C)=O)C3OC(C)=O)c(=S)c2C#N)cc1` (configuration not stated) showed a TGI in test [1] of over 100 µM. Still for that read-out and setting: the result for `CCOC(=O)Cn1sc2ncc([N+](=O)[O-])cc2c1=O` reads 25.6 µM; that for `CCN(CC)Cc1cc(Nc2ccnc3ccc4c(nnn4C)c23)ccc1O`, 32.4 µM; that for `CCOc1cc(NC(C)=O)ccc1C(=O)NN1C(=O)C(Oc2ccccc2)C1c1ccc(O)c(OC)c1` (configuration not stated), 83.9 µM.

Turning to `O=C(CSc1nnc(Cc2ccccc2)o1)Nc1cccc([N+](=O)[O-])c1`, the TGI in test [2], in [3], in test [4], in test [5], in test [6] and in test [7] was over 100 µM in each case. Further, the TGI in test [1], in test [8] and in test [9] was over 100 µM throughout. As to `O=C(CC(=O)n1nc(-c2ccccc2)c(N=Nc2ccc(Cl)cc2)c1-c1ccccc1)Nc1cccc(Cl)c1`, the TGI in test [1] is over 100 µM.

Take `Cc1cccc2c(N)c3cccc(C(=O)NCCCNCCN)c3nc12`: in [1], the TGI amounted to 20.1 µM.

In test [1], `COc1cccc(C2c3cc4c(cc3OC(N3CCCC3)C2C)OCO4)c1` (configuration not stated) showed a TGI of 36.7 µM. `C=CCN1C(=O)/C(=C/c2ccccc2)NC1=S` showed a TGI in test [1] of over 100 µM. For `O=C1SCC(O)=C1/C=N/Nc1nc2ccccc2o1`, the TGI in [1] was 81 µM.

`Cc1cc(C)cc(Nc2nnc3n2S(=O)(=O)c2cc(C#N)c(Cl)cc2S3)c1` yielded a TGI in test [1] of 34.6 µM. As to `CCC1c2[nH]c3ccccc3c2C[C@H]2C(=O)NC(CCC(=O)OC(C)(C)C)C(=O)N12` (some centres not stated), the TGI in test [1] came out at 72.3 µM.

`Cc1ccc(S(=O)(=O)OC2C3OC(C)(C)OC3OC2C(c2cc(O)c3c(c2O)C(=O)c2ccccc2C3=O)c2cc(O)c3c(c2O)C(=O)c2ccccc2C3=O)cc1` (configuration not stated) displayed a TGI in [1] of over 10 µM. On the same count and under the same terms, the value for `COc1ccccc1N1C(=O)/C(=C\c2cccc(Oc3ccccc3)c2)SC1c1ccccc1` (configuration not stated) was 55 µM; that for `O=C(c1ccc(Cl)cc1Cl)N(C(=O)N1CCCCC1)c1ccccc1` was over 100 µM. `Cc1[nH]c(=O)[nH]c(=S)c1C(=O)NC(C)(CO)CO` yielded a TGI in test [1] of over 100 µM. In the case of `C=C1CC[C@@]2(OC1)OC1C[C@H]3[C@@H]4CC=C5C[C@@H](O)CC(OC6OCC(OC(=O)[C@@H](O)[C@@H](C)CC)C(OC(C)=O)C6OC6OC(C)C(O)C(O)C6O)[C@]5(C)[C@H]4CC[C@]3(C)C1[C@@H]2C` (some centres not stated), in test [1], the TGI is 4.5 µM.

In [1], `CCCCn1c(C)c(C(=O)OCC)c2cc(OCc3ccc(C(=O)Nn4c(C)ccc4C)cc3)c(Br)cc21` registered a TGI of over 100 µM. `Cc1ccccc1Nc1cn(COCc2ccccc2)c(=O)[nH]c1=O` showed a TGI in test [1] of over 100 µM. Same read-out and setting: the value for `Cc1oc2nc(N(C)C)nc(Cl)c2c1C` was over 100 µM; that for `Cc1c(Cc2ccccc2)n(COCCCO)c(=O)[nH]c1=O` was over 100 µM; that for `COC(=O)c1ccc2c(c1)CC1(C2)Cc2cc3c(cc2C1=O)CCC3` (configuration not stated) was 38.7 µM. For the compound `O=C(CCc1ccc(O)cc1)NCCc1ccc(O)cc1`, in [1], the TGI was over 100 µM.

In [1], `O=c1[nH]nc(-c2cccc(Br)c2)[nH]1` had a TGI of over 100 µM. In [1], `Nc1nc(Cl)cc(NCC2(CO)CC(OCc3ccccc3)C2)n1` (configuration not stated) displayed a TGI of over 100 µM. On the same count and under the same terms, the value for `CCOC(=O)/C(O)=C(/C=NC(=S)c1ccncc1)C(=O)OCC` was over 100 µM.

For the compound `N#[O+].O=S(=O)([O-])[O-].[NH2-].[NH2-].[NH2-].[NH2-].[NH2-].[Ru+5]`, the TGI in test [3], in [4], in [5], in test [7] and in test [1] was over 100 µM throughout. In addition, the GI50 in test [5] is over 100 µM. Compound `COC12C=CC(CC1)C(C)(C)C2=O` (configuration not stated) had a TGI in test [1] of over 100 µM. On the same count and under the same terms, the value for `CC1=C2C3=C(C)C(=O)C(C)(C)CC[C@@]3(C)[C@]2(C)CCC(C)(C)C1=O` was over 100 µM; that for `CCCCCCCCCCCCCCCCCc1cccc(OCOCCOC)c1CO` was over 100 µM. For `CC(C)NC(=O)OCc1c(COC(=O)NC(C)C)c(-c2ccc[n+](COC(=O)CC(C)(C)C)c2)n2c1CCC2`, the TGI in test [1] is over 100 µM. On to `N#CC1=C(N2CCCC2)NC(=O)CC1=O`, for which, in test [1], the TGI was over 100 µM. In turn, `NCCc1nc(-c2nc(C(=O)O)cs2)cs1` returned a TGI in [1] of over 100 µM. The compound `CCSc1nc(N2CCOCC2)c2cn[nH]c2n1` had a TGI in [1] of over 100 µM. In turn, `CC1(C)NC(=O)C(NC(=O)C(CC(=O)OCc2ccccc2)NC(=O)OCc2ccccc2)CCCCNC(=O)CCNC1=O` (configuration not stated) (Cbz-D(OBn)K[Aib][βAla]; lactam 2-C; configuration not given here) had a TGI in [1] of over 100 µM. As to `CC(=O)NNc1nc(C)c(C(/C=C/c2cccc([N+](=O)[O-])c2)=N/NC(=S)NN)s1`, in test [1], the TGI was over 100 µM. Take `CC(=O)O[C@@H]1C=C(C)[C@H](CBr)O[C@@]2(C)CC[C@H](Br)C(C)(C)[C@H]12`: the TGI in [1] was over 100 µM. In the case of `Oc1cc(O)c2c(c1)O[C@H](c1cc(O)c(O)c(O)c1)[C@H](O)C2`, in test [1], the TGI turned out to be 33.2 µM. The same measure, in the same setting: the result for `Cc1nc(N)c(N2CCNCC2)c(=O)[nH]1` reads over 100 µM; that for `CSc1nc(Cl)c2c(n1)Sc1nc3cc4c(cc3n1C2O)OCO4` (configuration not stated), 0.686 µM. For the compound `CC(=O)OC1CC2OC(Cc3ccccc32)O1` (configuration not stated), the TGI in test [2] is 94.9 µM; in test [3] it was over 100 µM; in test [4] it was over 100 µM; in test [5] it was over 100 µM; in test [6], over 100 µM; in test [7], over 100 µM. Moreover, the TGI in test [10], in test [1], in test [8] and in test [9] was over 100 µM throughout.

On to `CN(C)/N=C(\CCN1CCCC1)CC(c1ccccc1)c1c(O)c2ccccc2oc1=O` (configuration not stated), for which the TGI in [3], in [4], in test [5], in test [6], in [10] and in test [1] was over 100 µM throughout.
